From patent US7094781B2, “Sulfamides and their use as endothelin receptor antagonists” (Actelion Pharmaceuticals Ltd., priority 2000, dated 2006) come the findings set out here.

The structures appear in SMILES notation. Bounds are passed on as bounds.

The target in experiment [1] is T1, human recombinant ETA receptor (Homo sapiens, UniProt P25101).
T1 construct: expressed in transfected cells; host or cells: CHO cells (microsomal membranes)
T1 sequence (P25101 21-427): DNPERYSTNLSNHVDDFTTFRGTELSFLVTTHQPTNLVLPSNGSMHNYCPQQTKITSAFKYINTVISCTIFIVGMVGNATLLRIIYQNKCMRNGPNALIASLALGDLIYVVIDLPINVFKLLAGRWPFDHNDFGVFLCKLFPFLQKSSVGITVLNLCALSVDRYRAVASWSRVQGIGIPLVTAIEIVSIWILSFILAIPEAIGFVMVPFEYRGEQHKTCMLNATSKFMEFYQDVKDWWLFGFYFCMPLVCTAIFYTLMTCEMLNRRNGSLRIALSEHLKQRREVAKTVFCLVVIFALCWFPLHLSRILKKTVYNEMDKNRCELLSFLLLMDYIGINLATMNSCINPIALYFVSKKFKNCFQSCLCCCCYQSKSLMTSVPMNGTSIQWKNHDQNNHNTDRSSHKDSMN
Briefly: Inhibition of [125I]ET-1 binding to membranes from CHO cells carrying human ETA receptors.

For experiment [2], the target named is T2, human recombinant ETB receptor (Homo sapiens, UniProt P24530).
T2 construct: expressed in transfected cells; host or cells: CHO cells (microsomal membranes)
T2 sequence (P24530 27-442): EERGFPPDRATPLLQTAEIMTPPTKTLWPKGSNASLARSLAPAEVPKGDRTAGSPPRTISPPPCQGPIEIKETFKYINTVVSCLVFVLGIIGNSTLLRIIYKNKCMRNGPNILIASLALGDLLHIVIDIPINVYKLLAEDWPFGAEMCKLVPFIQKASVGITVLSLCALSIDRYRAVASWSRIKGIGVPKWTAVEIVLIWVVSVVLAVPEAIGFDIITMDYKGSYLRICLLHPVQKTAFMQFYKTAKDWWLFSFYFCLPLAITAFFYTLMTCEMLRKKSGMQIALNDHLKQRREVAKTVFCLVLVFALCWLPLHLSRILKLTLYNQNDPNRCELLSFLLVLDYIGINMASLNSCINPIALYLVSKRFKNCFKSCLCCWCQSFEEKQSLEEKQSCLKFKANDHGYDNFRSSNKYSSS
Briefly: Inhibition of [125I]ET-1 binding to membranes from CHO cells carrying human ETB receptors.

Regarding `COc1ccccc1Oc1c(NS(=O)(=O)NCc2ccccc2)nc(-c2ncccn2)nc1OCCOC(=O)Nc1cnccn1` [Example 42], the values for the IC50 in experiment [1] and in experiment [2] were 3.5 nM and 146 nM, respectively.

On to `COc1ccccc1Oc1c(NS(=O)(=O)NCc2ccccc2)nc(-c2ncccn2)nc1OCCOC(=O)Nc1ccccc1` [Example 43], for which the values for the half-maximal inhibitory concentration (IC50) in experiment [1] and in experiment [2] were 6.8 nM and 214 nM, respectively.

For the molecule `COc1ccc(CNS(=O)(=O)Nc2nc(-c3ncccn3)nc(OCCOc3ncc(Br)cn3)c2Oc2ccccc2OC)cc1` [Example 48], the values for the IC50 in experiment [1] and in experiment [2] were 1.46 nM and 46.6 nM, respectively.

Consider `COc1ccc(CNS(=O)(=O)Nc2nc(-c3ncccn3)nc(OCCOc3ncc(OC)cn3)c2Oc2ccccc2OC)cc1` [Example 49], for which the figures for the half-inhibitory concentration (IC50) in experiment [1] and in experiment [2] were 0.82 nM and 25.4 nM, respectively.

`COc1ccc(CNS(=O)(=O)Nc2nc(-c3ncccn3)nc(OCCOC(=O)Nc3ccccn3)c2Oc2ccccc2OC)cc1` [Example 50]: the IC50 – broadly, the concentration that gives 50% inhibition – in experiment [1] worked out at 0.87 nM; in experiment [2], 7.5 nM.

With `COc1cnc(OCCOc2nc(-c3ncccn3)nc(NS(=O)(=O)NCc3ccc(Cl)cc3)c2Oc2ccccc2OC)nc1` [Example 55], the half-inhibitory concentration (IC50) is 5.2 nM in experiment [1] and 80 nM in experiment [2].

In the case of `COc1ccccc1Oc1c(NS(=O)(=O)NCc2ccc(Cl)cc2)nc(-c2ncccn2)nc1OCCOc1ncc(Br)cn1` [Example 56], the half-maximal inhibitory concentration (IC50) is 6.9 nM in experiment [1] and 164 nM in experiment [2].

For the molecule `COc1ccccc1Oc1c(NS(=O)(=O)NCc2ccc(Cl)cc2)nc(-c2ncccn2)nc1OCCOC(=O)Nc1ccccn1` [Example 57], the IC50 in experiment [1] worked out at 4.9 nM; in experiment [2] it was 35.8 nM.

For the molecule `COc1cnc(OCCOc2nc(-c3ncccn3)nc(NS(=O)(=O)NCc3ccco3)c2Oc2ccccc2OC)nc1` [Example 59], the IC50 in experiment [1] turned out to be 5.6 nM; in experiment [2], 124 nM.

On to `COc1ccccc1Oc1c(NS(=O)(=O)NCc2ccco2)nc(-c2ncccn2)nc1OCCOc1ncc(Br)cn1` [Example 60], for which the values for the IC50 in experiment [1] and in experiment [2] were 3.4 nM and 232 nM, respectively.

In the case of `COc1ccccc1Oc1c(NS(=O)(=O)NCc2ccco2)nc(-c2ncccn2)nc1OCCOC(=O)Nc1cnccn1` [Example 61], the IC50 in experiment [1] was determined as 1.6 nM; in experiment [2] it was 200 nM.

Consider `COc1ccccc1Oc1c(NS(=O)(=O)NCc2ccccc2)nc(-c2ccncc2)nc1OCCOc1ncc(SC)cn1` [Example 74], for which the IC50 in experiment [1] is 1.8 nM; in experiment [2] it was 164 nM.

As for `COc1ccccc1Oc1c(NS(=O)(=O)NCc2cccs2)nc(-c2ccncc2)nc1OCCOc1ncc(Br)cn1` [Example 80], the half-inhibitory concentration (IC50) in experiment [1] was 10 nM; in experiment [2], more than 1000 nM.

For the molecule `COc1ccccc1Oc1c(NS(=O)(=O)NCc2cccs2)nc(-c2ccncc2)nc1OCCOC(=O)Nc1ccccn1` [Example 81], the IC50 in experiment [1] worked out at 3.6 nM; in experiment [2], 274 nM.

As for `COc1ccccc1Oc1c(NS(=O)(=O)NCc2ccccn2)nc(C2CC2)nc1OCCOc1ncc(Br)cn1` [Example 84], the IC50 in experiment [1] amounted to 37 nM; in experiment [2], 574 nM.

Turning to `COc1cnc(OCCOc2nc(C3CC3)nc(NS(=O)(=O)NCc3ccccc3)c2Oc2ccccc2OC)nc1` [Example 89], the figures for the IC50 in experiment [1] and in experiment [2] were 19 nM and 621 nM, respectively.

As for `COc1ccccc1Oc1c(NS(=O)(=O)NCc2ccccc2)nc(C2CC2)nc1OCCOc1ncc(SC)cn1` [Example 90], the IC50 in experiment [1] was determined as 7.4 nM; in experiment [2] it was 433 nM.

On to `COc1ccccc1Oc1c(NS(=O)(=O)NCc2ccccc2)nc(C2CC2)nc1OCCOC(=O)Nc1ccccn1` [Example 91], for which the half-maximal inhibitory concentration (IC50) in experiment [1] came to 2.5 nM; in experiment [2], 79 nM.

With `COc1ccccc1Oc1c(NS(=O)(=O)NCc2ccccc2)ncnc1OCCOc1ncc(SC)cn1` [Example 97], the 50% inhibitory concentration (IC50) in experiment [1] came out at 1.55 nM; in experiment [2], 92 nM.

As for `COc1ccccc1Oc1c(NS(=O)(=O)NCc2ccccc2)ncnc1OCCOC(=O)Nc1ccccn1` [Example 98], the results for the half-maximal inhibitory concentration (IC50) in experiment [1] and in experiment [2] were 2.1 nM and 159 nM, respectively.

For `COc1cnc(OCCOc2ncnc(NS(=O)(=O)NCc3ccccc3)c2-c2ccc(Br)cc2)nc1` [Example 101], the half-inhibitory concentration (IC50) in experiment [1] came to 1.24 nM; in experiment [2], 335 nM.

With `CCNS(=O)(=O)Nc1ncnc(OCCOc2ncc(SC)cn2)c1-c1ccc(Br)cc1` [Example 105], the figures for the concentration for half-maximal inhibition (IC50) in experiment [1] and in experiment [2] were 0.69 nM and 203 nM, respectively.

As for `O=S(=O)(NCC1CC1)Nc1ncnc(OCCOc2ncc(Br)cn2)c1-c1ccc(Br)cc1` [Example 107], the half-inhibitory concentration (IC50) came out at 0.25 nM in experiment [1] and 96 nM in experiment [2].

`CSc1cnc(OCCOc2ncnc(NS(=O)(=O)NCC3CC3)c2-c2ccc(Br)cc2)nc1` [Example 108]: the IC50 in experiment [1] was 0.28 nM; in experiment [2], 56 nM.

With `O=S(=O)(NCc1ccccc1)Nc1nc(-c2ccncc2)nc(OCCOc2ncc(Br)cn2)c1-c1ccc(Cl)cc1` [Example 109], the half-inhibitory concentration (IC50) was 1.94 nM in experiment [1] and more than 1000 nM in experiment [2].

Turning to `CSc1cnc(OCCOc2nc(-c3ccncc3)nc(NS(=O)(=O)NCc3ccccc3)c2-c2ccc(Cl)cc2)nc1` [Example 110], the results for the 50% inhibitory concentration (IC50) in experiment [1] and in experiment [2] were 2.3 nM and more than 1000 nM, respectively.

Take `COc1cnc(OCCOc2nc(-c3ccncc3)nc(NS(=O)(=O)NCc3ccccc3)c2-c2ccc(Cl)cc2)nc1` [Example 111]: the half-maximal inhibitory concentration (IC50) in experiment [1] was found to be 12.3 nM; in experiment [2], 3750 nM.

Take `O=S(=O)(NCC1CC1)Nc1ncnc(OCCOc2ncc(Br)cn2)c1-c1ccc(Cl)cc1` [Example 112]: the IC50 in experiment [1] is 0.52 nM; in experiment [2] it was 257 nM.

Take `COc1cnc(OCCOc2ncnc(NS(=O)(=O)NCC3CC3)c2-c2ccc(Cl)cc2)nc1` [Example 113]: the results for the concentration for half-maximal inhibition (IC50) in experiment [1] and in experiment [2] were 4.26 nM and 581 nM, respectively.

Regarding `O=S(=O)(Nc1ncnc(OCCOc2ncc(Br)cn2)c1-c1ccc(Cl)cc1)NC1CC1` [Example 114], the IC50 in experiment [1] is 8.3 nM; in experiment [2] it was more than 1000 nM.

With `CCNS(=O)(=O)Nc1ncnc(OCCOc2ncc(Br)cn2)c1-c1ccc(Cl)cc1` [Example 115], the figures for the IC50 in experiment [1] and in experiment [2] were 2.2 nM and more than 1000 nM, respectively.

`CCNS(=O)(=O)Nc1ncnc(OCCOc2ncc(SC)cn2)c1-c1ccc(Cl)cc1` [Example 116]: the half-maximal inhibitory concentration (IC50) in experiment [1] was 1.3 nM; in experiment [2], 567 nM.

In the case of `CCCCNS(=O)(=O)Nc1ncnc(OCCOc2ncc(Br)cn2)c1-c1ccc(Cl)cc1` [Example 117], the half-maximal inhibitory concentration (IC50) came out at 0.45 nM in experiment [1] and 518 nM in experiment [2].

On to `CCCCNS(=O)(=O)Nc1ncnc(OCCOc2ncc(SC)cn2)c1-c1ccc(Cl)cc1` [Example 118], for which the half-maximal inhibitory concentration (IC50) in experiment [1] amounted to 0.34 nM; in experiment [2], 611 nM.

`COc1ccccc1Oc1c(NS(=O)(=O)NCC2CC2)nc(-c2ccncc2)nc1OCCOc1ncc(Br)cn1` [Example 123]: the values for the half-inhibitory concentration (IC50) in experiment [1] and in experiment [2] were 2.9 nM and 124 nM, respectively.

As to `COc1cnc(OCCOc2nc(-c3ccncc3)nc(NS(=O)(=O)NCC3CC3)c2Oc2ccccc2OC)nc1` [Example 124], the IC50 was determined as 7.3 nM in experiment [1] and 102 nM in experiment [2].

For the molecule `COc1cnc(OCCOc2nc(-c3ncccn3)nc(NS(=O)(=O)NCC3CC3)c2Oc2ccccc2OC)nc1` [Example 127], the half-inhibitory concentration (IC50) in experiment [1] was 7.3 nM; in experiment [2] it was 87 nM.

As for `COc1ccccc1Oc1c(NS(=O)(=O)NCC2CCCCC2)nc(-c2ccncc2)nc1OCCOc1ncc(Br)cn1` [Example 130], the IC50 came out at 3.7 nM in experiment [1] and 347 nM in experiment [2].

For `COc1cnc(OCCOc2nc(-c3ccncc3)nc(NS(=O)(=O)NCC3CCCCC3)c2Oc2ccccc2OC)nc1` [Example 131], the IC50 in experiment [1] was found to be 3.2 nM; in experiment [2] it was 233 nM.

For `COc1cnc(OCCOc2nc(-c3ncccn3)nc(NS(=O)(=O)NCC3CCCCC3)c2Oc2ccccc2OC)nc1` [Example 134], the IC50 in experiment [1] is 2.4 nM; in experiment [2], 187 nM.

Turning to `COc1ccccc1Oc1c(NS(=O)(=O)NCc2ccc(F)cc2)nc(-c2ncccn2)nc1OCCOc1ncc(Br)cn1` [Example 142], the IC50 in experiment [1] was 2.6 nM; in experiment [2] it was 108 nM.

On to `COc1cnc(OCCOc2nc(-c3ncccn3)nc(NS(=O)(=O)NCc3ccc(F)cc3)c2Oc2ccccc2OC)nc1` [Example 143], for which the IC50 in experiment [1] stood at 3.1 nM; in experiment [2], 35 nM.

For `Cc1ccc(-c2c(NS(=O)(=O)NCc3ccc4c(c3)OCO4)ncnc2OCCOc2ncc(Br)cn2)cc1` [Example 145], the 50% inhibitory concentration (IC50) in experiment [1] was 1.64 nM; in experiment [2] it was more than 1000 nM.

Take `COc1cnc(OCCOc2ncnc(NS(=O)(=O)NCc3ccc4c(c3)OCO4)c2-c2ccc(C)cc2)nc1` [Example 146]: the 50% inhibitory concentration (IC50) stood at 5 nM in experiment [1] and 514 nM in experiment [2].

`CSc1cnc(OCCOc2ncnc(NS(=O)(=O)NCc3ccc4c(c3)OCO4)c2-c2ccc(C)cc2)nc1` [Example 147]: the IC50 in experiment [1] amounted to 1.2 nM; in experiment [2], 408 nM.

With `COc1ccccc1Oc1c(NS(=O)(=O)NCc2ccc3c(c2)OCO3)nc(-c2ccncc2)nc1OC` [Example 149], the 50% inhibitory concentration (IC50) was found to be 15 nM in experiment [1] and 1320 nM in experiment [2].
